Reference: ChEMBL document CHEMBL5360672, “Identification of Novel Dual-Target Estrogen Receptor α Degraders with Tubulin Inhibitory Activity for the Treatment of Endocrine-Resistant Breast Cancer” (J Med Chem, 2023)
Calls of active or inactive are those of the source. The calls are words filed in the database; no cut-off is given here.

Columns and labels:
[1] = target: T1, Estrogen receptor (Homo sapiens) (UniProt P03372); assay: Binding affinity to human ERalpha assessed as relative binding affinity incubated under vibration for 1 min followed by 2 hrs incubation under dark condition by fluorescence polarization assay relative to estradiol; conditions: time 121.0 min
T1 sequence (whole entry): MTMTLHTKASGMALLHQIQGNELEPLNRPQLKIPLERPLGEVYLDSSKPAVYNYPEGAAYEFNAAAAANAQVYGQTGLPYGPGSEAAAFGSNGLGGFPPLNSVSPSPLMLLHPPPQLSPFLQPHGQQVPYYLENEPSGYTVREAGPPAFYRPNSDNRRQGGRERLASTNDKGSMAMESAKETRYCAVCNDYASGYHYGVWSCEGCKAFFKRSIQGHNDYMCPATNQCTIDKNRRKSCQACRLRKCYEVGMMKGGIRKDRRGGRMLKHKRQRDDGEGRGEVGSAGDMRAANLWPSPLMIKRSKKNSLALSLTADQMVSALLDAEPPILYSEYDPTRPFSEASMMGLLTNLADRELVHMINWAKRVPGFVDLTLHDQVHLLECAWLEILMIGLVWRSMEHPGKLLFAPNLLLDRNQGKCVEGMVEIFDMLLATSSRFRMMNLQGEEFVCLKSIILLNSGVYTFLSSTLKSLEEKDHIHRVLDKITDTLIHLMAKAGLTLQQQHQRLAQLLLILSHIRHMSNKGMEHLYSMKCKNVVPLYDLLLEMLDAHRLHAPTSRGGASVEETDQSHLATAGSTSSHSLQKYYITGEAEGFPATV

[2] = target: Estrogen receptor beta (Homo sapiens) (UniProt Q92731); assay: Binding affinity to human ERbeta assessed as relative binding affinity incubated under vibration for 1 min followed by 2 hrs incubation under dark condition by fluorescence polarization assay relative to estradiol; conditions: time 121.0 min
Estrogen receptor beta (Homo sapiens), sequence (Q92731 whole entry): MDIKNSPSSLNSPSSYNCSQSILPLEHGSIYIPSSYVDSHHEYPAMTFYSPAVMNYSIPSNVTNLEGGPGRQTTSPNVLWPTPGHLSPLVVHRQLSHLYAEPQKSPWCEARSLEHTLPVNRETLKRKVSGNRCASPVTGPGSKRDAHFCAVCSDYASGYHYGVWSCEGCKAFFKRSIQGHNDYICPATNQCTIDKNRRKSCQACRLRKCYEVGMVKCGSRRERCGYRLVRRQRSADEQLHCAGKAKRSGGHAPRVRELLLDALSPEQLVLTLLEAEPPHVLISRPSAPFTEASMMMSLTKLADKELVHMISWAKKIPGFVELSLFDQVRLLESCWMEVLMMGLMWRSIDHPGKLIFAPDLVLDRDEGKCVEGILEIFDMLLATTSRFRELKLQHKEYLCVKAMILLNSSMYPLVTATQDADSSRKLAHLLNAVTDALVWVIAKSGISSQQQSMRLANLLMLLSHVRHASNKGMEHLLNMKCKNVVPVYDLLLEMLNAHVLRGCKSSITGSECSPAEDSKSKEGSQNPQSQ

Homo sapiens = species on record: Homo sapiens; assay: Selectivity ratio of relative binding affinity for human ERalpha to relative binding affinity to human ERbeta
MCF7 = assay: Antiproliferative activity against ERalpha positive human MCF7 cells assessed as inhibition of cell proliferation incubated for 72 hrs by CCK8 assay; assay type: functional, cell-based; conditions: MCF7, 72 h
T47D [3] = assay: Antiproliferative activity against ERalpha positive human T47D cells assessed as inhibition of cell proliferation incubated for 72 hrs by CCK8 assay; assay type: functional, cell-based
[4] = Cytotoxicity against human MCF-10A cells assessed as inhibition of cell proliferation incubated for 72 hrs by CCK8 assay; assay type: toxicity, cell-based
[5] = Selectivity index, ratio of IC50 for cytotoxicity against human MCF-10A cells to IC50 for antiproliferative activity against human MCF7 cells; assay type: toxicity, cell-based; conditions: MCF-10A cells and MCF7 cells, read-out: Ratio IC50
[6] = Antiproliferative activity against human Tamoxifen-resistant LCC2 cells assessed as inhibition of cell proliferation incubated for 72 hrs by CCK8 assay; assay type: functional, cell-based
T47D [7] = assay: Antiproliferative activity against human T47D cells harboring ERalpha D538G mutant assessed as inhibition of cell proliferation incubated for 72 hrs by CCK8 assay; assay type: functional, cell-based
T47D [8] = assay: Antiproliferative activity against human T47D cells harboring ERalpha Y537S mutant assessed as inhibition of cell proliferation incubated for 72 hrs by CCK8 assay; assay type: functional, cell-based
[9] = target: T1, Estrogen receptor (Homo sapiens); assay: Induction of ERalpha degradation in human MCF7 cells at 5 uM incubated for 24 hrs by Western blot analysis relative to SeCN-OBHSA derivatives; assay type: cell-based

Row | RBA [1] | RBA [2] | Selectivity ratio (Homo sapiens) | IC50 (MCF7) | IC50 (T47D [3]) | IC50 (T47D [7]) | IC50 (T47D [8]) | Activity [9] | SMILES | IC50 at 72 h [4] | selectivity ratio [5] | IC50 [6]
1 | 2.69% | 0.09% | 29.9 | 0.16 µM | 3.11 µM | 2.37 µM | 2.18 µM | Active | CCN(c1ccccc1Cl)S(=O)(=O)C1CC2OC1C(c1ccc(NC(=O)CCCCC[Se]C#N)cc1)=C2c1ccc(O)cc1 (centres undefined) | 17.3 µM | 108 | 2.17 µM
2 | 2.82% | 0.03% | 94 | 0.42 µM | 3.93 µM | 5.52 µM | 3.69 µM | Active | CCN(c1ccccc1OC)S(=O)(=O)C1CC2OC1C(c1ccc(NC(=O)CCCCC[Se]C#N)cc1)=C2c1ccc(O)cc1 (centres undefined) | 15.9 µM | 37.9 | 6.56 µM
3 | 4.64% | 0.1% | 46.4 | 0.31 µM | 2.87 µM | 2.86 µM | 3.38 µM | Active | N#C[Se]CCCCCC(=O)Nc1ccc(C2=C(c3ccc(O)cc3)C3CC(S(=O)(=O)N(CC(F)(F)F)c4cccc(F)c4)C2O3)cc1 (centres undefined) | 4.74 µM | 15.3 | 1.97 µM
4 | 0.51% | 0.2% | 2.55 | 2.81 µM | 14.2 µM | 19.8 µM | 9.25 µM | Active | CCN(c1cccc(OC)c1)S(=O)(=O)C1CC2OC1C(c1ccc(NC(=O)CCCCC[Se]C#N)cc1)=C2c1ccc(O)cc1 (centres undefined) | 91.5 µM | 32.5 | 13.3 µM
5 | 0.39% | 0.03% | 13 | 1.89 µM | 27.7 µM | 17.4 µM | 18.9 µM | Active | N#C[Se]CCCCCC(=O)Nc1ccc(C2=C(c3ccc(O)cc3)C3CC(S(=O)(=O)N(CC(F)(F)F)c4ccccc4)C2O3)cc1 (centres undefined) | 57.6 µM | 30.5 | 20.2 µM
6 | 7.18% | 0.38% | 18.9 | 0.17 µM | 5.82 µM | 2.71 µM | 2.7 µM | Active | N#C[Se]CCCCCC(=O)Nc1ccc(C2=C(c3ccc(O)cc3)C3CC(S(=O)(=O)N(CC(F)(F)F)c4ccc(F)cc4)C2O3)cc1 (centres undefined) | 12.2 µM | 71.9 | 4.48 µM
7 | 2.61% | 0.1% | 26.1 | 0.66 µM | 18 µM | 7.35 µM | 7.01 µM | Active | CCN(c1ccc(OC)cc1)S(=O)(=O)C1CC2OC1C(c1ccc(NC(=O)CCCCCCC[Se]C#N)cc1)=C2c1ccc(O)cc1 (centres undefined) | 29.8 µM | 45.1 | 13.4 µM
8 | 1.07% | 0.17% | 6.29 | 1.63 µM | 7.44 µM | 8.97 µM | 6.69 µM | Active | CCN(c1ccc(OC)cc1)S(=O)(=O)C1CC2OC1C(c1ccc(NC(=O)CCC[Se]C#N)cc1)=C2c1ccc(O)cc1 (centres undefined) | > 100 µM | > 61.4 | 17.4 µM
9 | 4.4% | 0.06% | 73.3 | 1.09 µM | 4.26 µM | 3.42 µM | 3.76 µM | Active | N#C[Se]CCCCCC(=O)Nc1ccc(C2=C(c3ccc(O)cc3)C3CC(S(=O)(=O)N(CC(F)(F)F)c4cccc(Cl)c4)C2O3)cc1 (centres undefined) | 49.1 µM | 45 | 3.96 µM
10 | 7.52% | 0.01% | 752 | 0.25 µM | 13.6 µM | 5.11 µM | 4.4 µM | Active | N#C[Se]CCCCCC(=O)Nc1ccc(C2=C(c3ccc(O)cc3)C3CC(S(=O)(=O)N(CC(F)(F)F)c4ccc(Cl)cc4)C2O3)cc1 (centres undefined) | 32.4 µM | 130 | 6.69 µM
11 | 0.46% | 0.38% | 1.21 | 2.95 µM | 19.9 µM | 17.2 µM | 11.7 µM | Active | COc1ccc(N(CC(F)(F)F)S(=O)(=O)C2CC3OC2C(c2ccc(NC(=O)CCC[Se]C#N)cc2)=C3c2ccc(O)cc2)cc1 (centres undefined) | > 100 µM | > 33.9 | 10.1 µM
12 | 2.31% | 0.05% | 46.2 | 0.25 µM | 5.3 µM | 3.96 µM | 3.06 µM | Active | COc1ccc(N(CC(F)(F)F)S(=O)(=O)C2CC3OC2C(c2ccc(NC(=O)CCCCC[Se]C#N)cc2)=C3c2ccc(O)cc2)cc1 (centres undefined) | 36.7 µM | 147 | 3.73 µM
13 | 7.3% | 0.01% | 730 | 0.33 µM | 6.66 µM | 4.76 µM | 4.92 µM | Active | CCN(c1ccc(OC)cc1)S(=O)(=O)C1CC2OC1C(c1ccc(NC(=O)CCCCC[Se]C#N)cc1)=C2c1ccc(O)cc1 (centres undefined) | 37.9 µM | 115 | 5.8 µM
14 | 1.44% | 0.13% | 11.1 | 0.47 µM | 9.62 µM | 5.16 µM | 4.58 µM | Active | COc1cccc(N(CC(F)(F)F)S(=O)(=O)C2CC3OC2C(c2ccc(NC(=O)CCCCC[Se]C#N)cc2)=C3c2ccc(O)cc2)c1 (centres undefined) | 26.9 µM | 57.1 | 6.73 µM
15 | 5.56% | 0.09% | 61.8 | 0.28 µM | 3.83 µM | 1.91 µM | 3.03 µM | Active | CCN(c1cccc(Cl)c1)S(=O)(=O)C1CC2OC1C(c1ccc(NC(=O)CCCCC[Se]C#N)cc1)=C2c1ccc(O)cc1 (centres undefined) | 9.23 µM | 33 | 2.61 µM
16 | 2.31% | 0.06% | 38.5 | 0.44 µM | 5.66 µM | 6.76 µM | 4.51 µM | Active | CCN(c1ccc(Cl)cc1)S(=O)(=O)C1CC2OC1C(c1ccc(NC(=O)CCCCC[Se]C#N)cc1)=C2c1ccc(O)cc1 (centres undefined) | 29.2 µM | 66.3 | 4 µM
17 | 0.76% | 0.09% | 8.44 | 0.44 µM | 20.2 µM | 12.7 µM | 6.27 µM | Active | COc1ccc(N(CC(F)(F)F)S(=O)(=O)C2CC3OC2C(c2ccc(NC(=O)CCCCCCC[Se]C#N)cc2)=C3c2ccc(O)cc2)cc1 (centres undefined) | 38.2 µM | 86.8 | 10.3 µM
18 | 0.79% | 0.03% | 26.3 | 0.36 µM | 3.39 µM | 2.37 µM | 2.39 µM | Active | CCN(c1cccc(F)c1)S(=O)(=O)C1CC2OC1C(c1ccc(NC(=O)CCCCC[Se]C#N)cc1)=C2c1ccc(O)cc1 (centres undefined) | 11 µM | 30.6 | 2.51 µM
19 | 11.2% | 0.07% | 159 | 0.25 µM | 3.84 µM | 2.43 µM | 2.74 µM | Active | CCN(c1ccc(F)cc1)S(=O)(=O)C1CC2OC1C(c1ccc(NC(=O)CCCCC[Se]C#N)cc1)=C2c1ccc(O)cc1 (centres undefined) | 18.1 µM | 72.2 | 2.64 µM
